According to patent US20140378395A1, “Peptides for the Treatment of Hearing” (13Therapeutics, Inc., priority 2011, published 2014):
Non-standard residues stand in square brackets, D forms with d. No end group written: not given here.

Key:
BALB/c mice [1] = experiment: Effects of peptide on middle ear without added bacteria; assay type: in vivo, mouse; settings: 10 μM, no bacteria, 3 days; p=0.104, 0.880, 0.891
Description: BALB/c (Bagg albino) mice, about 8-12 weeks of age, are anesthetized with a subcutaneous injection of xylazine & ketamine (about 0.1 mg/30 gm body weight) and their ears examined under the operating microscope to assure they are free of infection or perforation. One group of animals is injected with PBS (Phospho-buffered saline) in one ear and with about 10 μM of a peptide of Table 1 in the opposite ear, to determine the effect of peptide without added bacteria. A second group of animals receive about 5.0 μl of PBS plus heat-inactivated S. pneumoniae (about 10^9 CFU/ml) in one ear and about 5.0 μl of peptide (about 10 μM) plus heat-inactivated S. pneumoniae (about 10^9 CFU/ml) in the opposite ear. […] Inflammation is quantified by measuring 1) area of fluid present in the middle ear; 2) number of cells in middle ear fluid; and 3) thickness of the tympanic membrane (TM) taken at a point away from the injection site. Data are obtained from mice (n=18) injected with PBS alone for each of the histological parameters measured, to serve as a control group.
Five mice were injected in one ear with PBS and in the opposite ear with 10 μM peptide P13 (SEQ ID NO: 369). Three days later the animals were killed, and the middle ears embedded, sectioned, stained and evaluated for fluid area, infiltrating cell number, and thickness of the tympanic membrane. […]

BALB/c mice [2] = experiment: Ototoxicity of topical administration in normal mice, ABR; assay type: in vivo, mouse; settings: 1, 10, 10 (twice) or 60 μg/30 μL topically; ABR 1-4 weeks
Description: P13 (SEQ ID NO: 369) was investigated for possible negative impact on hearing in normal mice upon administration by ear drops. BALB/c mice, 16 weeks of age, (n=16) received two baseline auditory brainstem response (ABR) tests one week apart, and an otoscopic exam in both ears. ABR stimuli consisted of 20 tone-burst trains at 4 kHz, 8 kHz, 16 kHz and 32 kHz at five intensity levels in 10 dB steps, as previously described. An otoscopic exam was performed using an operating microscope to establish the clinical symptoms of AOM, as previously described. Any animal with an abnormal ABR or exam on pre-screen was not entered into the study.
All 16 animals remained in the study and were divided into five groups as follows:
group 1: (n=6 ears) 1 μg P13 (SEQ ID NO: 369)/30 μl, topically, given once;
group 2: (n=7 ears) 10 μg P13 (SEQ ID NO: 369)/30 μL, topically, given once;
group 3: (n=7 ears) 10 μg P13 (SEQ ID NO: 369)/30 μL, topically, given twice, 24 hours apart;
group 4: (n=6 ears) 60 μg P13 (SEQ ID NO: 369)/30 μL, topically, given once; and
ABRs were performed at one, two, three and four weeks post P13 (SEQ ID NO: 369) treatment. The two baseline ABRs were averaged and compared to the ABRs post P13 (SEQ ID NO: 369) treatment.

[3] = system: TNF-α secretion from RAW264.7 cells; experiment: Inhibition of CpG-ODN-induced TNF-α secretion from RAW264.7 cells (ELISA); assay type: cell-based, murine; settings: for activity compared with P13 (inhibition of TNF-α after stimulation of RAW264.7 cells with CpG): SAR, versus P13; for Percent Inhibition of TNF-α secretion, CpG Stimulation / Inhibition of TNF-α secretion (percent inhibition) / Percent Inhibition of TNF-α secretion: RAW264.7, 4 hours; for Percent Inhibition of TNF-α secretion, CpG Stimulation: 1.25 ug/ml CpG-ODN; for Inhibition of TNF-α secretion (percent inhibition) / Percent Inhibition of TNF-α secretion: 1 μg/ml CpG-ODN
Description: (§1) RAW264.7 cells were plated at 1.5×10^5 cells/well-3×10^5 cells/well in 48-well plates. After 24 hours, the cells were incubated with peptides at various concentrations at room temperature in triplicate either before, simultaneous with, or after activation with various PAMPs for 18 hours. Cell-free supernatants were analyzed for cytokines by ELISA, in quadruplicate. RAW264.7 cells were stimulated with either CpG-ODN (1 μg/ml or 1.25 μg/ml), LPS (about 1 ng/ml), Poly (I:C) (about 10 μg/ml), flagellin (about 5 ng/ml), or zymosan (about 10 μg/ml). Dose response curves were done with each PAMP to determine optimal stimulation concentration. For CpG-ODN stimulation, cells were incubated for 4 hours at 37° C., supernatants collected, and TNF-α measured by ELISA. Any cytokine involved in inflammatory disease mediated toll receptor signaling can be measured using similar assays.
The effect of several peptides on TNF-α secretion from RAW264.7 cells in response to stimulation by CpG-ODN was studied. Each peptide was initially tested at 3 concentrations, 37 μM, 22.2 μM, and 11.1 μM. […] The peptides were then tested at 11.1 μM, 7.4 μM, and 3.7 μM (Table 3). […] Cell viability was examined for each peptide at the concentrations tested for TNF-α inhibition.
(§2) Inhibition of TNF-α secretion by various T-peptides was examined. RAW264.7 cells were plated at 3×10^5 cells/well in 48-well plates. After 24 h the cells were incubated with peptide at various concentrations at room temperature in triplicate for 15 minutes and then stimulated with 1.25 ug/ml CpG-ODN or 1 ng/ml LPS. Cells were then incubated for 4 hours at 37° C., supernatants collected, and TNF-α measured by ELISA. Percent inhibition was calculated by comparing TNF-α secretion from cells incubated with peptide to control cells with no peptide treatment. The inhibitive effects of peptides T3 (SEQ ID NO: 319), T11 (SEQ ID NO: 327), T21 (SEQ ID NO: 337), T36 (SEQ ID NO: 352), T37 (SEQ ID NO: 353), T51 (SEQ ID NO: 367), and T52 (SEQ ID NO: 368) were compared to inhibition by an analogue of P13 (SEQ ID NO: 369) having a sequence of nine arginine residues at the C-terminus (P13-R^9 (SEQ ID NO: 378)). (Table 4).

[4] = system: TNF-α secretion from RAW264.7 cells; experiment: Inhibition of LPS-induced TNF-α secretion from RAW264.7 cells (ELISA); assay type: cell-based, murine; settings: 1 ng/ml LPS, 4 hours
Description: as §1, §2

BALB/c mice [5] = experiment: Middle ear inflammation: heat-inactivated S. pneumoniae plus peptide injected into the middle ear, histology after 3 days; assay type: in vivo, mouse; settings: single dose with heat-inactivated S. pneumoniae; paired t-tests
[6] = system: toll-like receptor-dependent signaling; experiment: Cytokine secretion / signaling in response to TLR activation in vitro; assay type: cell-based
Description: as §1

BALB/c mice [7] = experiment: LPS-induced septic shock model, pro-inflammatory mediators; assay type: in vivo; settings: mouse model
Description: BALB/c mice are injected i.p. with PBS, LPS at about 100 μg/mouse/250 μl, or about 100 μg LPS plus various doses of peptides. Serum is collected at about 2 and about 6 hours after treatment and evaluated for the pro-inflammatory cytokines MIP-2 and TNF-α by ELISA, and for soluble ICAM-1.

[8] = system: TNF-α secretion from RAW264.7 cells; experiment: Inhibition of CpG-ODN-induced TNF-α secretion from RAW264.7 cells (ELISA); assay type: cell-based, murine; settings: peptide 3.1 μM (Table 3), 1 μg/ml CpG-ODN, 4 hours
BALB/c mice [9] = experiment: Assay for crossing the tympanic membrane by FITC-labeled peptide; assay type: in vivo, mouse; settings: 10 μg/30 μl dropped on ear, 10 minutes; AOM ears; fluorescent microscopy
Description: Three BALB/c mice at 8-12 weeks of age were anesthetized with ketamine (100 mg/kg) and xylazine (20 mg/kg) prior to administration of bacteria. A ventral midline incision was made in the neck, and the bulla exposed after blunt dissection. The middle ear was inoculated through the bony wall with approximately 3.5 μL of a bacterial suspension (heat inactivated S. pneumoniae 10^10 CFU/ml) with a thin needle. Both the right and left ears received bacteria by bulla injection.
After 24 hours, animals received an otoscopic exam using an operating microscope. Mice were anesthetized as described above, and the tympanic membrane was inspected for the presence or absence of the following three criteria for acute otitis media (AOM): 1) middle ear effusion behind the tympanic membrane; 2) change in color of the tympanic membrane from clear to red or white (indicating inflammation and/or purulence in the middle ear); and 3) change in position of the tympanic membrane from neutral to bulging or retracted.
Four ears met the criteria for AOM. FITC labeled peptide P13-R^9 (SEQ ID NO: 378) (10 μg/30 μl) was dropped onto the middle ear. The peptide was allowed to absorb for 10 minutes. After 10 minutes, the external ear canal was flushed twice, and blotted to get rid of any remaining peptide. […]

C3H/HeJ mice = experiment: Topical treatment in chronic otitis media (COM) model, ABR; assay type: in vivo, mouse

## DIVKLTVYDCI [Peptide P13, DIVKLTVYDCI]
BALB/c mice [1]
  differences between PBS-injected ear and P13-injected ear in fluid area, cell number, tympanic membrane thickness: no differences
BALB/c mice [2]
  impact on hearing thresholds in normal mice (ototoxicity): did not negatively impact hearing thresholds

## DIVKLTVYACIRRRRRRRRR [T11-R^9]
[3]
  activity compared with P13 (inhibition of TNF-α after stimulation of RAW264.7 cells with CpG): superior activity
[4]; peptide 7.4 uM
  Percent Inhibition of TNF-α secretion, LPS Stimulation: 68%
[4]; peptide 11.1 uM
  Percent Inhibition of TNF-α secretion, LPS Stimulation: 81%
[4]; peptide 22.2 uM
  Percent Inhibition of TNF-α secretion, LPS Stimulation: 91%

## DIVKLTVYDCIRRRRRRRRR [P13-R^9]
[3]; peptide 7.1 μM
  Percent Inhibition of TNF-α secretion, CpG Stimulation: 32%
[3]; peptide 11.1 μM
  Percent Inhibition of TNF-α secretion, CpG Stimulation: 65%
[3]; peptide 22 μM
  Percent Inhibition of TNF-α secretion, CpG Stimulation: 86%
[4]; peptide 7.4 uM
  Percent Inhibition of TNF-α secretion, LPS Stimulation: 0%
[4]; peptide 11.1 uM
  Percent Inhibition of TNF-α secretion, LPS Stimulation: 13%
[4]; peptide 22.2 uM
  Percent Inhibition of TNF-α secretion, LPS Stimulation: 69%
BALB/c mice [5]
  bacterial-induced middle ear inflammation (amount of fluid, infiltrating cell number, thickness of the tympanic membrane): dramatically reduced
[6]
  cytokine secretion from cell activation initiated independent of TLR stimulation: no effect
[6]; TLR ligands individually or in combination
  cytokine secretion in response to TLR activation: effectively inhibited
BALB/c mice [7]
  pro-inflammatory mediators in LPS-induced septic shock: reduce pro-inflammatory mediators

## EMFTILEEYFMYRGLLGLRIKYGRLFRRRRRRRRR (C-terminal nona-arginine (R9)) [69(S5)-R^9]
[3]; peptide 7 μM (Table 3)
  Inhibition of TNF-α secretion (percent inhibition): 94%
[3]; peptide 11 μM (Table 3)
  Inhibition of TNF-α secretion (percent inhibition): 93%
[3]; peptide 11.1 μM
  Percent Inhibition of TNF-α secretion: 93%
[3]; peptide 22.2 μM
  Percent Inhibition of TNF-α secretion: 100%
[3]; peptide 37 μM
  Percent Inhibition of TNF-α secretion: 100%
[8]
  Inhibition of TNF-α secretion (percent inhibition): 66%

## FITC-labeled P13-R^9: FITC (Fluorescein isothiocyanate) labeled peptide P13-R^9 (SEQ ID NO: 378) (DIVKLTVYDCIRRRRRRRRR; also: FITC label, position not given here)
BALB/c mice [9]
  crossing of the tympanic membrane and association with cells in middle ear fluid: crosses the tympanic membrane

## D-Asp-D-Ile-D-Val-D-Lys-D-Leu-D-Thr-D-Val-D-Tyr-D-Asp-D-Cys-D-Ile ([dD][dI][dV][dK][dL][dT][dV][dY][dD][dC][dI]) [D-P13, stereoisomer of P13 containing all D-amino acid residues]
C3H/HeJ mice; week 2 post-treatment
  improvement of hearing thresholds across all frequencies: approximately 20 db
C3H/HeJ mice; weeks 1 and 2 post-treatment
  hearing thresholds by ABR across all four frequencies: demonstrated efficacy

## EMFTILEEYFMYRGLLRRRRRRRRR (C-terminal nona-arginine (R9)) [79(S14)-R^9]
[3]; peptide 7 μM (Table 3)
  Inhibition of TNF-α secretion (percent inhibition): 77%
[3]; peptide 11 μM (Table 3)
  Inhibition of TNF-α secretion (percent inhibition): 86%
[3]; peptide 11.1 μM
  Percent Inhibition of TNF-α secretion: 85%
[3]; peptide 22.2 μM
  Percent Inhibition of TNF-α secretion: 93%
[3]; peptide 37 μM
  Percent Inhibition of TNF-α secretion: 97%
[8]
  Inhibition of TNF-α secretion (percent inhibition): 0%

## EMFTILEEYFMYRGLLGLRIKYGRRRRRRRRR (C-terminal nona-arginine (R9)) [72(S8)-R^9]
[3]; peptide 7 μM (Table 3)
  Inhibition of TNF-α secretion (percent inhibition): 80%
[3]; peptide 11 μM (Table 3)
  Inhibition of TNF-α secretion (percent inhibition): 93%
[3]; peptide 11.1 μM
  Percent Inhibition of TNF-α secretion: 92%
[3]; peptide 22.2 μM
  Percent Inhibition of TNF-α secretion: 100%
[3]; peptide 37 μM
  Percent Inhibition of TNF-α secretion: 100%
[8]
  Inhibition of TNF-α secretion (percent inhibition): 43%

## AIVKLTVYDCIRRRRRRRRR [T3-R^9]
[3]
  activity compared with P13 (inhibition of TNF-α after stimulation of RAW264.7 cells with CpG): superior activity
[3]; peptide 7.1 μM
  Percent Inhibition of TNF-α secretion, CpG Stimulation: 85%
[3]; peptide 11.1 μM
  Percent Inhibition of TNF-α secretion, CpG Stimulation: 92%
[3]; peptide 22 μM
  Percent Inhibition of TNF-α secretion, CpG Stimulation: 99%
[4]; peptide 7.4 uM
  Percent Inhibition of TNF-α secretion, LPS Stimulation: 33%
[4]; peptide 11.1 uM
  Percent Inhibition of TNF-α secretion, LPS Stimulation: 65%
[4]; peptide 22.2 uM
  Percent Inhibition of TNF-α secretion, LPS Stimulation: 77%

## EMFTILEEYFMYRGLRRRRRRRRR (C-terminal nona-arginine (R9)) [80(S15)-R^9]
[3]; peptide 7 μM (Table 3)
  Inhibition of TNF-α secretion (percent inhibition): 68%
[3]; peptide 11 μM (Table 3)
  Inhibition of TNF-α secretion (percent inhibition): 81%
[3]; peptide 11.1 μM
  Percent Inhibition of TNF-α secretion: 78%
[3]; peptide 22.2 μM
  Percent Inhibition of TNF-α secretion: 87%
[3]; peptide 37 μM
  Percent Inhibition of TNF-α secretion: 91%
[8]
  Inhibition of TNF-α secretion (percent inhibition): 57%
